Our source for the IC50 values is BindingDB's records for doi:10.1016/j.bmcl.2007.05.021 (Yale University, 2007).

The structures appear in SMILES notation. Where only a bound is given, the exact number is not on record here.

In the assay the target is Transcription factor Jun (Homo sapiens, UniProt P05412). Description: Inhibition of AP1-mediated gene transcription in HepG2 cells by luciferase reporter gene assay.
Chain of Transcription factor Jun (P05412 whole entry): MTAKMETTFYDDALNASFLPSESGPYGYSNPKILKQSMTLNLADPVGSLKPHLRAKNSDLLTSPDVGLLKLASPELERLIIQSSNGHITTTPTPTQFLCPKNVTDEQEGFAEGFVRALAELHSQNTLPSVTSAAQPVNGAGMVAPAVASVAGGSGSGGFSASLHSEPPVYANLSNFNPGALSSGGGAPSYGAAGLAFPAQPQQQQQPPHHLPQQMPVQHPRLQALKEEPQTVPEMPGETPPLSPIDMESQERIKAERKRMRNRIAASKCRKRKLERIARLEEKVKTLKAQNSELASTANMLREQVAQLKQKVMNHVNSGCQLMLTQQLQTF
As to `COc1cc2c3c(c4cc(OC)c(OC)cc4c2cc1OC)[C@@H](O)[C@@H]1CCCN1C3` [(12aS,13R)-2,3,6,7-tetramethoxy-9,10,11,12,12a,13-hexahydro-9a-aza-cyclopenta[b]triphenylen-13-ol], the IC50 was above 300 nM.

Consider `COc1cc2c3c(c4cc(OC)c(OC)cc4c2cc1O)CN1CCC[C@H]1[C@H]3O` [(12aS,13S)-2,6,7-trimethoxy-9,10,11,12,12a,13-hexahydro-9a-aza-cyclopenta[b]triphenylene-3,13-diol], for which the 50% inhibitory concentration (IC50) was above 1000 nM. On to `COc1cc2c(cc1OC)-c1cc(OC)c(OC)cc1C1CN3CCC[C@H]3C=C21` (stereo partly drawn) [(S)-2,3,6,7-tetramethoxy-8b,9,10,11,12,12a-hexahydro-9a-aza-cyclopenta[b]triphenylene], for which the 50% inhibitory concentration (IC50) was above 300 nM. The figure for `COc1ccc2c3c(c4cc(OC)c(O)cc4c2c1)CN1CCC[C@@H]1C3` [[(R)-(+)-deoxytylophorinidine] is 68 nM; for `COc1ccc2c3c(c4cc(OC)c(O)cc4c2c1)C[N+]1([O-])CCC[C@H]1[C@H]3O` (stereo partly drawn) [tylophoridicine C] it is above 3000 nM; for `COc1ccc2c3c(c4cc(OC)c(OC)cc4c2c1)C[N+]1([O-])CCC[C@H]1[C@@H]3O` (stereo partly drawn) [tylophoridicine F] it is above 3000 nM. The figure for `COc1ccc2c3c(c4cc(OC)c(O)cc4c2c1)CN1CCC[C@H]1[C@H]3O` [tylophorinidine] is 65 nM; for `COc1ccc2c3c(c4cc(OC)c(OC)cc4c2c1)CN1CCC[C@H]1[C@@H]3O` [tylophorinine] it is 110 nM.

The IC50 is the concentration needed to halve the response being measured. The low end stands for greater potency, the high end for weaker potency.
